In patent US20140272041A1, “METHODS OF REDUCING PATHOGENS DURING PROCESSING OR POST-PROCESSING OF BEEF, POULTRY AND OTHER MEAT PRODUCTS” (BIRKO Corporation, priority 2009, published 2014):

Assays:
[1] = test system: E. coli ATCC 12435; assay: Log kill / surviving titer in aqueous bacterial suspension, plating on TSA; format: cell-based, Escherichia coli; conditions: 15 seconds, 74 to 80 degrees F.
Experimental: The “reaction” (i.e. interaction of antimicrobial agent and the target organism) was initiated by the addition of bacteria to the antimicrobial solution. The reaction was allowed to proceed for the respective time periods listed in Table I (i.e., at least 15 seconds each) and was terminated at the end of that time by adding quench buffer comprising 3.2 M potassium phosphate buffer, pH 7.2. The sample then was evaluated using serial 10-fold dilutions into sterile phosphate buffer as needed to determine, on Tryptic Soy agar (“TSA”), the titer of surviving bacteria. TSA is a medium that allows the growth of most bacteria.
The reduction in the bacterial count is expressed as the “log kill” which is defined as log10 [initial cfu/ml]−log10 [remaining cfu/ml]; where “cfu” refers to “colony forming unit.” All log kills reported herein are positive “base 10.”). Inasmuch as the standard assay mixture contained only ca. 25×10^6 cfu initially (equivalent to 7.398 log) the theoretical maximum kill that can be measured with this assay system is ca. 7.4 log and the practical measuring limit is ca. 6 log. Therefore, high levels of log reduction were monitored by plating reaction mixtures directly (without dilution) onto agar medium. The results are reported in Table I and illustrated in graph format in FIG. 1. […] The tests were replicated with E. coli ATCC 43888, a pathogenic strain of E. coli O157:H7. […]
After incubation for 15 seconds at ambient temperature the reaction was quenched by addition of phosphate buffer and the titer of surviving bacteria was determined by plating on TSA as described in the previous examples. […] The amphoteric and zwitterionic surfactants, which carry a net positive charge under the conditions of the reaction mixture, caused enhancement of the log kill by lactic acid. All anionic surfactants tested caused substantial enhancement of the log kill by lactic acid.

[2] = test system: E. coli SAC-2; assay: as above; format: cell-based, Escherichia coli; conditions: surfactant 0.2% in 2.5% lactic acid, 15 seconds, 74 to 80 degrees F.
Experimental: In each instance a target sample was employed using approximately 50 micro liters of an SAC-2 culture. E. coli “SAC-2,” was a Gram-negative strain isolated from municipal sewage. The tests were performed at room temperature, i.e., 75 deg. F. […] The results of each test sample were evaluated using a series of 10-fold dilutions as needed to determine, on a standard plating agar (TSA), the titer of bacteria that survived the antimicrobial treatment.
The same procedure was employed as in Example 2, but the only agent added to the target solution was Niaproof 08. No lactic acid was employed.
The mixture was then diluted and plated as previously described.
Increasing amounts of reagent were added to a series of test tubes. […] The bacterial titer of each mixture was determined by preparation and plating of serial dilutions on TSA.
[…] […] The amphoteric and zwitterionic surfactants, which carry a net positive charge under the conditions of the reaction mixture, caused enhancement of the log kill by lactic acid. All anionic surfactants tested caused substantial enhancement of the log kill by lactic acid.

[3] = surfactant 0.2% in 2.5% lactic acid

| Compound | Log Kill (Lactic Acid + Surfactant) [1, 3] [log] | Log Kill (Lactic Acid + Surfactant) ([1]; 0.1% CAPB in 2.5% lactic acid) [log] | Log Kill (Lactic Acid + Surfactant) [2] [log] |
| --- | --- | --- | --- |
| CCCCC(CC)COC(=O)CC(C(=O)OCC(CC)CCCC)S(=O)(=O)[O-].[Na+] (centres unmarked) [Sodium dioctyl sulfosuccinate] | 6.67 | – | – |
| coco amidoalkyl betaine [Norfox CAPB] | – | 6.25 | – |
| phosphate ester of polyoxyalkylated fatty alcohol [Klearfac AA270] | 6.31 | – | 2.56 |
| coconut based imidazoline, dicarboxylate, sodium salt [Amphoterge K2] | 2.86 | – | – |
| ethoxylated nonylphenol [T-Det N 9.5] | – | – | 0.18 |
| CCCCCCCCS(=O)(=O)[O-].[Na+] [Bioterge PAS-8S, sodium octane sulfonate] | 6.31 | – | – |
| Polyoxyethylene (20) sorbitan monooleate [Tween 80] | – | – | 0.18 |
